Results reported in patent US20070203212A1, “METHOD OF TREATING OSTEOARTHRITIS” (WARNER-LAMBERT COMPANY, priority 2002, published 2007).

How the values were obtained:
[1] = Blood pressure in normal healthy humans; format: in vivo, human
[2] = test system: monosodium iodoacetate (MIA)-induced osteoarthritis; experiment: MIA rat model, acute single oral dose: change in hind paw weight distribution (joint pain); format: in vivo; settings: for shift in weight bearing potential (joint pain) versus pre-dose: 2, 4 and 6 hours post administration
Protocol: It should be appreciated that in Biological Methods 1, 2, 4, and 5 below, hind paw weight bearing differentials between the paw of the limb having the control joint (in animals administered test compound vehicle only) and the paw of the limb having the contralateral test joint (in control or inducement animals administered test compound vehicle only and in treatment animals administered test compound dissolved in test compound vehicle) were determined using an incapacitance tester, model 2KG (Linton Instrumentation, Norfolk, United Kingdom). The incapacitance tester has a chamber on top with an outwardly sloping front wall that supports a rat's front limbs, and two weight sensing pads, one for each hind paw, that facilitates this determination. The hind paw weight bearing differentials were expressed in grams and calculated as follows: (the average weight in grams placed on the control limb minus the average weight in grams placed on the contralateral test limb for each of the inducement or treatment animals) minus (the average weight in grams placed on the control limb minus the average weight in grams placed on the contralateral test limb for each of the control animals). All results were statistically analyzed by comparing the average results for an induction or treatment group with the average result for its control group at the same time point using analysis of covariance (“ANCOVA”) followed by the Hoehberg's procedure and those with statistical significance had p<0.05 unless otherwise noted.
The rats were anesthetized with 5% volume/volume (“v/v”) isoflurane gas and maintained with 2% v/v isoflurane gas. The anesthetized rats were given a single intra-articular injection of 1 mg of MIA through the infrapatellar ligament of the right knee. MIA was dissolved in physiologic saline and administered in a volume of 50 μL. The contralateral control knee was injected with 50 μL of physiologic saline. Administration of isoflurane gas was discontinued, and the rats became fully conscious about 5 minutes later.
Shifts in hind paw weight distribution from the right to the left hind paws supporting the right (arthritic) and the left (contralateral control) hind leg knee joints were utilized as an index of joint pain and as a measure of compound efficacy. An incapacitance tester (Model 2KG, Linton Instrumentation, UK) was employed for determination of hind paw weight distribution. Each data point is the mean of three readings of 5 seconds duration.
CI-1027 (i.e., 6-(5-carboxy-5-methyl-hexyloxy)-2,2-dimethyl-hexanoic acid, calcium salt) was dissolved in hydroxypropylmethylcellulose (“HPMC”) vehicle (0.05% HPMC+0.2% Tween 80; compound amount was adjusted based on the percent of free acid, i.e., 6-(5-carboxy-5-methyl-hexyloxy)-2,2-dimethyl-hexanoic acid).
[…] Rats were then given a single, 10, 30, or 100 mg/kg, dose of CI-1027 via oral gavage (PO). Changes in hind paw weight distribution were determined 2, 4 and 6 hours post-compound administration.
6-(5-carboxy-5-methyl-hexyloxy)-2,2-dimethyl-hexanoic acid, calcium salt (“CI-1027”) and rofecoxib was tested in the rat MIA model in an acute dosing paradigm as described previously. MIA was injected into the right knee and saline into the left knee of all rats on Day 0. […] Two hours later, the rats were reassessed. The results for inhibition of pain, expressed as a percentage±standard error of the mean, are shown below in Table 5. The percent inhibition of pain was determined as described above in Biological Method 1. […] N=8 rats per group.

[3] = test system: experimental osteoarthritis (anterior cruciate ligament section); experiment: Experimental osteoarthritis in rabbit (EOA in Rabbit); format: in vivo; settings: 30 or 10 mg/kg/dose three times per day, 8 weeks; 'if these EOA studies were performed'
Protocol: Normal rabbits are anaesthetized and anteromedial incisions of the right knees performed. The anterior cruciate ligaments are visualized and sectioned. The wounds are closed and the animals are housed in individual cages, exercised, and fed ad libitum. Rabbits are given either vehicle (water) or 6-(5-carboxy-5-methyl-hexyloxy)-2,2-dimethyl-hexanoic acid, calcium salt, or a pharmaceutically acceptable salt thereof, (10 rabbits per group). Each group is dosed three times per day with the 6-(5-carboxy-5-methyl-hexyloxy)-2,2-dimethyl-hexanoic acid, calcium salt, or a pharmaceutically acceptable salt thereof, group receiving 30-mg/kg/dose or 10-mg/kg/dose. The rabbits are euthanized 8 weeks after surgery and the proximal end of the tibia and the distal end of the femur are removed from each animal.
The cartilage changes on the femoral condyles and tibial plateaus are graded separately under a dissecting microscope (Stereozoom, Bausch & Lomb, Rochester, N.Y.). […] The surface area changes are measured and expressed in mm^2. […]
Representative specimens of synovial membrane from the medial and lateral knee compartments are dissected from underlying tissues. […] The average score is calculated and considered as a unit for the whole knee. […]
Mean values and SEM are calculated and statistical analysis is done using the Mann-Whitney U-test.

Question: What does the source list for `CC(C)(CCCCOCCCCC(C)(C)C(=O)[O-])C(=O)[O-].[Ca+2]` [CI-1027, 6-(5-carboxy-5-methyl-hexyloxy)-2,2-dimethyl-hexanoic acid, calcium salt]?
Answer: effect on blood pressure [1]: no effect or perhaps even slightly (1-5 mmHg) decreases; shift in weight bearing potential (joint pain) versus pre-dose ([2]; 10 mg/kg PO single dose on Day 14): did not significantly alter; shift in weight bearing potential (joint pain) versus pre-dose ([2]; 30 mg/kg PO single dose on Day 14): only the change at the 4-hour post dose time point was statistically significant; shift in weight bearing potential (joint pain) versus pre-dose ([2]; 100 mg/kg PO single dose on Day 14): statistically significant; Mean pain alleviation at 2 hours post administration (% ± SEM) ([2]; CI-1027 10 mg/kg PO alone, Day 14): 20 ± 9%; Inhibition of Pain (% versus control), MIA (acute) ([2]; single oral dose 30 mg/kg on Day 7, 4 hours post dose): 67 ± 8%; lesion size on tibial plateaus / cartilage damage [3]: reduce the size of the lesion on the tibial plateaus
